The subject of assay [1] is U87-MG cells. The assay can be described thus: F-actin cytoskeletal rearrangement, rhodamine-phalloidin staining. The assay is classed as cell-based, human. The settings on record: 100 nM peptide pre-incubated 40 min 37 °C, then 5% FBS 3 h. The procedure: The U87-MG cells were analyzed for their cytoskeletal organization upon exposure to the indicated peptides. Briefly, 2 × 10^5 cells/sample were harvested via mild trypsinization, pre-treated for 40 min at 37 °C with 100 nM of selected peptides, and incubated with 5% FBS for 3 h at 37 °C. Samples diluted in a serum-free medium were included as negative controls. Then cells were fixed, permeabilized, and stained with 0.1 μg/mL rhodamine–phalloidin (Sigma-Merck, St. Louis, MO, USA) for 40 min at rt. To stain nuclei, the slides were incubated with 20 ng/mL DAPI (4′,6-Diamidino-2- phenylindole, Sigma-Merck, St. Louis, MO, USA) for 10 min at rt, mounted with Mowiol Mounting Medium (Sigma-Merck, St. Louis, MO, USA), and examined with the DMI6000 Leica Inverted Fluorescence Microscope ([…], Milan, Italy) at 40× magnification. At least 4 fields/samples were acquired, and the total fluorescence was measured with ImageJ.
Figure 5 Representative images of U87-MG cytoskeletal rearrangements. […] F-actin was detected via staining with rhodamine–phalloidin, as specified in the Methods section, using the Leica DMI 6000 Inverted Microscope at 40× magnification. […] In the histogram, the results are expressed as a percentage of total fluorescence intensity in the absence of FBS and peptide (no peptide); ** p-value < 0.005, * p ≤ 0.05.

Assay [2] has as its system U87-MG cells. The assay is classed as cell-based, human. The protocol:
The migration and invasion assays were performed with Boyden chambers, according to De Vincenzo et al., using 11 × 10^4 U87-MG and U251-MG glioblastoma cells/sample pre-treated for 40 min at 37 °C with the indicated effectors and then allowed to migrate for 3 h or to invade for 5 h at 37 °C toward 5% FBS in DMEM/0.1% BSA. The migrated or invaded cells were reported as a percentage of basal random migration or invasion and analyzed as reported in the Statistical Analyses section. The migration and invasion experiments were conducted in triplicate.
(§1) Figure 1 Binding of Ala peptides to U87-MG cells and effect of uPAcyclin and Ala peptides on U87-MG cellular migration. (A) A total of 2 × 10^6 U87-MG cells were pre-incubated for 30 min at 4 °C with increasing concentrations of unlabeled uPAcyclin and Ala peptides and then exposed to 50 nM of FITC-uPAcyclin for 2 h at 4 °C. Cell surface-associated fluorescence, as percentage of the sample with […], is shown. Experiments were carried out in duplicate, and the data shown here are representative of three independent experiments. (B) 11 × 10^4 U87-MG cells/sample were pre-treated for 40 min at 37 °C with increasing concentrations of uPAcyclin or the indicated Ala peptides and then assayed in Boyden chambers for 5% FBS-dependent migration for 3 h at 37 °C. At the end of incubation, the filters were processed as described in the Methods section. For clarity here and in the following Figures, Ala-x indicates the peptide with substituted x-position. For both assays, the p-values are in the range of 0.005 ≤ p ≤ 0.001, apart from [Ala1]uPAcyclin in the migration assay with p ≤ 0.05.
Alterations of the amino acid sequence may affect the peptide structure and may, in turn, alter its function. To test for differences in the inhibitory activity of the Ala-substituted peptides, U87-MG glioblastoma cells were subjected to a directional migration assay in Boyden chambers towards FBS, in the presence or in the absence of the indicated concentrations of uPAcyclin or one of its Ala-scan derivatives (Figure 1B).

In assay [3] the target is T1, integrin αV receptors on the GBM cell surface (U87-MG cells) (Homo sapiens, UniProt P06756).
T1 construct: endogenous in cells; host or cells: U87-MG human glioblastoma cells (living, acid-treated, 4 °C)
T1 sequence (P06756 31-889 limits assumed): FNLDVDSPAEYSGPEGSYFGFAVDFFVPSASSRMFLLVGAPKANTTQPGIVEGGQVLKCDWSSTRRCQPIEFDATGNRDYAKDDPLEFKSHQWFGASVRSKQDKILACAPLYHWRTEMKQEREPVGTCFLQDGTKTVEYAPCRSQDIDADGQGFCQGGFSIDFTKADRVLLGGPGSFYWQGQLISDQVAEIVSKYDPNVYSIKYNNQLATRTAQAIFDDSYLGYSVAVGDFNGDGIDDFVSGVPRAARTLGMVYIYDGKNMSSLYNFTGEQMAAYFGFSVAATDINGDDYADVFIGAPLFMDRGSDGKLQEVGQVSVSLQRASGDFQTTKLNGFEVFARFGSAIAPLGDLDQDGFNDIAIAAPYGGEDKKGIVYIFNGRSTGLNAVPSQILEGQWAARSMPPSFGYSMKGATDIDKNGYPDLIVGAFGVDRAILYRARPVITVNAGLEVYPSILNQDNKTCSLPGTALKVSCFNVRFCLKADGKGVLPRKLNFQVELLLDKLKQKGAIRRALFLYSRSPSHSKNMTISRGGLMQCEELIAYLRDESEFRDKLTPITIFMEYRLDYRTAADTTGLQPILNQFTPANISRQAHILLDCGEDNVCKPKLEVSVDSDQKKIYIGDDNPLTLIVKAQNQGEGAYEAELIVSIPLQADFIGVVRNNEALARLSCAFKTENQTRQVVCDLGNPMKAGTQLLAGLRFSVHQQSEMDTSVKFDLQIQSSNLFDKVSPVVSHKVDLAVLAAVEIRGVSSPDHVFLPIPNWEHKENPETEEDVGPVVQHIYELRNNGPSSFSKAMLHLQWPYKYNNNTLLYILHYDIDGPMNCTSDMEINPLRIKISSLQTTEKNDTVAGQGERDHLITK
T1 sequence (P06756 891-1048 limits assumed): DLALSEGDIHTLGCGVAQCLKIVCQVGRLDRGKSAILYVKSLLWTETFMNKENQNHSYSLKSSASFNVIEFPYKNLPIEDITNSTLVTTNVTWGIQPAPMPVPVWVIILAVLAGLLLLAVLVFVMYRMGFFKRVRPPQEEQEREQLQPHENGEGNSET
Briefly: Receptor binding assay: displacement of FITC-uPAcyclin from U87-MG living cells. The procedure:
The U87-MG and U251-MG cell lines were harvested and acid-treated, as described. Briefly, 2 × 10^6 cells/sample were pre-incubated for 30 min at 4 °C with uPAcyclin and Ala peptides and subsequently exposed to 50 nM FITC-uPAcyclin for 2 h at 4 °C, as described. The experiments were performed three times, with duplicate samples, and analyzed as reported in the statistical analysis.
This assay confirmed that FITC-uPAcyclin binds specifically to both GBM cell lines and to the HEK-293/αV, whereas little interaction is detected with HEK-293 cells (Supporting Information, Table S7). […] To investigate the ability of novel Ala-scan peptides to compete with uPAcyclin for binding to integrin αV receptors on the GBM cell surface, the specific interaction of FITC-conjugated uPAcyclin with U87-MG living cells was tested via a receptor binding assay. U87-MG GBM cells were pre-incubated with increasing concentrations of unlabeled Ala peptides and then exposed to FITC-uPAcyclin (Figure 1A). […] When considering the relative Kdapp of uPAcyclin variants, it can be inferred that the replacement either of each of the three prolines (Pro^2, Pro^5, Pro^6) or Lys^1 increases the binding affinity of the resulting peptide compared to uPAcyclin. In contrast, the Ala mutation of other residues is detrimental to the peptide binding affinity.
as §1

Positions of bridges follow the written chain, without caps; N, C: chain ends. Residues, ends and D or L forms follow the SMILES beside them.

On to `CC(=O)N[C@@H](CCCCN)C(=O)N[C@@H](C)C(=O)N[C@H]1CCC(=O)NCCCC[C@@H](C(N)=O)NC(=O)[C@H](CC(C)C)NC(=O)[C@H](CCC(=O)O)NC(=O)[C@H](CCC(=O)O)NC(=O)[C@@H]2CCCN2C(=O)[C@H](C)NC(=O)[C@H](CO)NC1=O` [[Ala^2,Ala^5]uPAcyclin] (Ac-KAESAPEELK-NH2; lactam 3-10), for which the “reduction in total F-actin fluorescence (inhibition of cytoskeletal rearrangements)” value in the assay with U87-MG cells [1] stood at 50%. In addition, the “IC50 of migration lower / inhibitory activity higher than parental uPAcyclin” value in the assay on U87-MG cells [2] (U87-MG migration) is approximately 100 fold. The “inhibitory activity on cell migration, comparison (in words)” value with U87-MG cells [2] (U87-MG migration toward 5% FBS) is listed as “most potent peptide of the series”. In addition, the “IC50 of migration lower than the single variants” value in the assay on U87-MG cells [2] (U87-MG migration, versus [Ala^2]uPAcyclin and [Ala^5]uPAcyclin) is listed as “about 10 fold”. Also, the “migration reduced to (percentage of basal random migration)” value in the assay with U87-MG cells [2] (U87-MG, 5% FBS, concentration not given) is “about 70%”.
As to `CC(=O)N[C@@H](CCCCN)C(=O)N1CCC[C@H]1C(=O)N[C@H]1CCC(=O)NCCCC[C@@H](C(N)=O)NC(=O)[C@H](CC(C)C)NC(=O)[C@H](C)NC(=O)[C@H](CCC(=O)O)NC(=O)[C@@H]2CCCN2C(=O)[C@@H]2CCCN2C(=O)[C@H](CO)NC1=O` [[Ala^8]uPAcyclin] (Ac-KPESPPEALK-NH2; lactam 3-10), the “binding affinity compared to uPAcyclin (in words)” value in assay [3] (displacement of FITC-uPAcyclin, U87-MG cells) is recorded as “reduced affinity”.
For the molecule `CC(=O)N[C@@H](CCCCN)C(=O)N1CCC[C@H]1C(=O)N[C@H]1CCC(=O)NCCCC[C@@H](C(N)=O)NC(=O)[C@H](CC(C)C)NC(=O)[C@H](CCC(=O)O)NC(=O)[C@H](CCC(=O)O)NC(=O)[C@@H]2CCCN2C(=O)[C@@H]2CCCN2C(=O)[C@H](CO)NC1=O` [uPAcyclin] (Ac-KPESPPEELK-NH2; lactam 3-10), the “reduction in total F-actin fluorescence (inhibition of cytoskeletal rearrangements)” value in the assay on U87-MG cells [1] is 35%. Further, the “concentration at which dose-dependent inhibitory activity starts” value in the assay on U87-MG cells [2] (U87-MG migration toward 5% FBS) stood at 1 pM. The “effect on FBS-induced directional migration (in words)” value in the assay on U87-MG cells [2] (U87-MG, 1 µM peptide) is “abolishes FBS-induced directional migration”. In assay [3] (competition with 50 nM FITC-uPAcyclin, 2 × 10^6 U87-MG cells, pre-incubation 30 min 4 °C, then 2 h 4 °C, three experiments in duplicate, read-out: Kdapp), the Kd was approximately 0.1 nM.

The values above are taken from paper PMC11853379, “Glioblastoma Cell Migration, Invasion and Vasculogenic Mimicry Downmodulated by Novel uPAcyclin Derivatives” (Cells, 2025).
